# Assay results reported in PubChem BioAssay (NCI).
#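 Growth conditions: 96-well plates. Treatment: test compound, 48 hours, 5 concentrations. Analysis: linear interpolation between bracketing concentrations; unreached endpoints set to highest concentration. TGI marks complete inhibition of growth.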
# What was measured:
# Assay in all cases: DTP human tumour cell line panel, 48 h
# ACHN renal = system: ACHN renal
# UACC-257 melanoma = system: UACC-257 melanoma
# OVCAR-4 ovarian = system: OVCAR-4 ovarian
# MDA-MB-435 = system: MDA-MB-435
# MCF7 breast = system: MCF7 breast
# SK-MEL-28 melanoma = system: SK-MEL-28 melanoma
# A498 renal = system: A498 renal
# DU-145 prostate = system: DU-145 prostate
# LOX IMVI melanoma = system: LOX IMVI melanoma
# IGROV1 ovarian = system: IGROV1 ovarian
SMILES,TGI (ACHN renal),TGI (UACC-257 melanoma),TGI (OVCAR-4 ovarian),TGI (MDA-MB-435),TGI (MCF7 breast),TGI (SK-MEL-28 melanoma),TGI (A498 renal),TGI (DU-145 prostate),TGI (LOX IMVI melanoma),TGI (IGROV1 ovarian)
O=C(C1=CCC2(CC1)OCCO2)N(Cc1ccccc1)c1ccccc1I,43.2 µM,46.7 µM,34.4 µM,50.7 µM,72.4 µM,46.2 µM,51.9 µM,63.6 µM,56.8 µM,–
CC(=O)NC1C(OCc2ccccc2)OC(CO)C(O)C1OCC(=O)NC(C)C(=O)NC(CCC(=O)OCCNC(=O)c1cccc2cc3ccccc3nc12)C(N)=O (stereo unspecified),39.3 µM,66.3 µM,48.7 µM,42.4 µM,> 100 µM,43.3 µM,–,26.6 µM,26.8 µM,48.9 µM
CCOC(=O)c1c2ccccc2n2c(=O)n(C)nnc12,> 100 µM,> 100 µM,> 100 µM,> 100 µM,> 100 µM,> 100 µM,> 100 µM,> 100 µM,> 100 µM,> 100 µM
O=[N+]([O-])/C(Cl)=C(\Sc1ccccc1)C(Cl)=C(Cl)Cl,3.07 µM,0.994 µM,3.65 µM,0.453 µM,1.1 µM,2.76 µM,3.1 µM,3.08 µM,0.97 µM,2.62 µM
COC(=O)c1ccc(/C=N/c2cc(C)nn2-c2ccccc2)cc1,> 100 µM,20.4 µM,> 100 µM,96.6 µM,> 100 µM,> 100 µM,–,> 100 µM,> 100 µM,> 100 µM
O=C(Nc1ccccc1)N1CC(CN2CCN(c3ccccc3)CC2)OC1=O (stereo unspecified),> 100 µM,> 100 µM,> 100 µM,> 100 µM,> 100 µM,> 100 µM,> 100 µM,> 100 µM,> 100 µM,> 100 µM
O=C(CN1CCOCC1)NC1=Nc2ncccc2C(=O)NN1,> 10 µM,> 10 µM,–,> 10 µM,> 10 µM,> 10 µM,> 10 µM,> 10 µM,> 10 µM,> 10 µM
c1csc(-c2cc(-c3ccsc3)c(-c3cccs3)s2)c1,> 100 µM,> 100 µM,> 100 µM,> 100 µM,89.8 µM,> 100 µM,> 100 µM,> 100 µM,–,–
CCOC(=O)C1C(=O)CC(C)(O)C(C(=O)OCC)C1c1ccc(O)c(OC)c1 (stereo unspecified),> 100 µM,> 100 µM,> 100 µM,> 100 µM,> 100 µM,> 100 µM,> 100 µM,> 100 µM,> 100 µM,> 100 µM
CCN(CC)CC1CCCCN1CC(=O)N1c2ccc(Br)cc2C(=O)Nc2cccnc21 (stereo unspecified),> 100 µM,> 100 µM,> 100 µM,> 100 µM,> 100 µM,> 100 µM,> 100 µM,> 100 µM,> 100 µM,> 100 µM
O=C1CC(CC(O)C(O)CO)CC(=O)N1 (stereo unspecified),> 100 µM,> 100 µM,–,> 100 µM,> 100 µM,> 100 µM,> 100 µM,> 100 µM,> 100 µM,> 100 µM
O=c1oc2ccccc2c(O)c1C(c1ccc([N+](=O)[O-])cc1)c1c(O)c2ccccc2oc1=O,–,> 100 µM,> 100 µM,> 100 µM,–,> 100 µM,> 100 µM,> 100 µM,> 100 µM,> 100 µM
O=C(/C=C/c1ccc(O)c(O)c1)Oc1ccccc1,41.7 µM,> 81.8 µM,> 100 µM,> 74.2 µM,64.9 µM,> 100 µM,> 100 µM,43.8 µM,21 µM,30.6 µM
COc1cccc2c1[C@H](OC)[C@]13O[C@@]1(C2=O)[C@H](O)[C@H](C)[C@@](O)(C(=O)[C@@H]1O[C@H]1C)[C@@H]3O,0.7 µM,0.527 µM,0.555 µM,0.518 µM,4.86 µM,0.654 µM,0.585 µM,–,0.648 µM,0.576 µM
C=C(Cl)C(Br)(CCl)CCC(Cl)C(C)C (stereo unspecified) (tested in a mixture with another compound),3.98 µM,3.27 µM,3.82 µM,3.67 µM,–,3.21 µM,31.6 µM,3.25 µM,1.23 µM,3.73 µM
N[C@H]1CCc2c1nc1c(c2-c2ccccc2)CC[C@@H]1N,> 100 µM,–,> 100 µM,30.2 µM,64.3 µM,–,–,> 100 µM,30.6 µM,31.4 µM
Cc1ccc2c(c1)C(=O)C1(C2)Cc2ccc(C)cc2C1=O,> 100 µM,> 100 µM,> 100 µM,> 100 µM,> 100 µM,–,> 100 µM,> 100 µM,> 100 µM,> 100 µM
Cn1c2nc(=Nc3ccc(Cl)cc3)n3ccc4ccccc4c3c2c(=O)n1-c1ccccc1,> 100 µM,> 100 µM,> 100 µM,> 100 µM,> 100 µM,> 100 µM,> 100 µM,> 100 µM,> 100 µM,> 100 µM
CC(C)Nc1n[nH]c(=O)n1C(C)C,> 100 µM,> 100 µM,–,> 100 µM,> 100 µM,> 100 µM,> 100 µM,> 100 µM,> 100 µM,> 100 µM
C1CSCCSS[C@@H]2CCCCC2SC1 (stereo partly specified),–,> 100 µM,> 100 µM,> 100 µM,> 100 µM,> 100 µM,–,> 100 µM,> 100 µM,> 100 µM
C[C@H](C(=O)N1C(=O)O[C@@H](c2ccccc2)[C@H]1C)[C@H](c1ccccc1)N(Cc1ccccc1)OC(=O)c1ccccc1,> 100 µM,> 100 µM,> 100 µM,> 100 µM,> 100 µM,> 100 µM,> 100 µM,> 100 µM,> 100 µM,> 100 µM
COc1ccc(CCNC(=O)Cc2ccccc2CCO)cc1OC,> 100 µM,> 100 µM,> 100 µM,> 100 µM,> 100 µM,> 100 µM,> 100 µM,> 100 µM,–,> 100 µM
